Marks after values point to notes of the source that are not given here.
Key:
rats [1] = experiment: Acute and tonic pain: healthy rats, tail flick test (Example 13); details: Compound I-1 p.o. 10 mg/kg, 120 minutes after treatment
Experimental: Tail Flick Test. A radiant heat was applied on the tail. When the rat felt discomfort, it reacted by a sudden tail movement (tail flick) which automatically stopped the stimulation and the timer for the measurement by the animal reaction time or nociceptive reaction latency (period from the beginning of the stimulation until detection of the response of the animal). A cut-off was previously fixed at 10 sec in order to prevent tissue damage.
(§1) Testing: 120 minutes after treatment. N=4/model/test. Results are expressed for each group as a percentage of activity calculated from the mean value of the vehicle-treated animals and compared to naïve animals, control paw, or cut-off value, depending on the test.

cGMP in rat CSF = experiment: Rat CSF biomarker (cGMP) measurement (Example 7); assay type: in vivo
Experimental: This experiment was to determine the effect of different doses of a compound of the invention on the cGMP response as well as the compound concentration in rat CSF and compound concentration in rat plasma. Protocol. Each rat was sampled one time or multiple times with 3 or more days in between each dosing. Day before the experiment. Fast rats overnight with ad libitum access to water. Day of the experiment. Compound and cyclic guanosine monophosphate (cGMP) in rat CSF was determined following oral dosing. Male Sprague-Dawley rats with an indwelling catheter placed in the cisterna magna were used. The rats were dosed with 0 mg/kg (n=15), 3 mg/kg (n=19) and 10 mg/kg (n=20) of a compound of the invention formulated as a suspension in 0.5% methylcellulose, 0.5% Tween80. PO doses were administered by oral gavage and delivered to the stomach using a syringe and gavage tube. Following oral dosage administration, the gavage tube was flushed with approximately 0.5 mL of water to ensure complete delivery of the full dose. Plasma and CSF samples were collected under isoflurane anesthesia as follows: samples of CSF were collected at 1 hour and 6 hours post-dosing and samples of blood were collected 1 h post-dosing. CSF samples were collected through the intracisternal catheter. Approximately 20 μL of CSF and discard (dead volume is 14-16 μL); then withdraw approximately 50 μL of CSF in eppendorf tubes containing 5 μL of glacial acetic acid. Snap freeze CSF by immersion in liquid nitrogen. Blood samples (0.25 mL) were collected through retro-orbital sampling. These samples were kept on ice until processed for plasma. Blood samples were centrifuged at 3200 rpm for 10 minutes at approximately 5° C. within 1 hour of collection. Plasma was directly transferred to a 96-well plate tube (0.125 mL). Plug caps were placed on the tubes and the tubes frozen at approximately −70° C. and stored until analysis. Plasma was collected and analyzed for the presence of a compound. Quantitation of Compounds and cGMP. The compound of the invention, cGMP and the internal standard were extracted from plasma and CSF by precipitation. Samples were analyzed using liquid chromatography (LC) with tandem mass spectrometric detection (MS/MS) using electrospray ionization. The standard curve range was from 1 to 1000 ng/mL. Results of the compounds described herein in this assay are illustrated in Table 7 below (3 and 10 mg/kg dose). Statistics were determined by planned comparison t-tests.

rats [2] = experiment: Inflammatory pain: kaolin, gait score (Example 13); assay type: in vivo, rat; details: Compound I-1 p.o. 10 mg/kg, 120 minutes after treatment
Experimental: Kaolin. Induction: In rats, unilateral arthritis was induced by an intra-articular injection of a 10% kaolin suspension into the knee joint of the right hind paw under gas anesthesia (3.5% isoflurane/3 L/min). Gait score: The gait score will be evaluated 3 h 30 min after kaolin administration by:
2: intermittent raising of the paw

[3] = Dog cerebrospinal fluid (CSF) pharmacokinetic properties (Example 5); assay type: in vivo; details: male, beagle, 1 mg/kg PO
Experimental: Protocol PK in dogs was determined following oral dosing. A group of 4 male beagle dogs were used and the dogs were dosed with 1 mg/kg of a compound formulated as a suspension in 1% HPMC E5, 0.2% Tween 80, and 0.5% MC in water. PO doses were administered by oral gavage in a gelatin capsule and delivered to the stomach using a gavage tube. Following oral dosage administration, the gavage tube was flushed with approximately 10 mL of water to ensure complete delivery of the full dose.
Plasma and CSF samples were collected as follows: samples of CSF and blood were collected at 1, 2, 4 and 8 hours post PO dosing. CSF samples (0.05 mL) were collected from the lumbosacral region (L4/5) via direct needle puncture at the appropriate time points. Blood samples (0.25 mL) were collected via cephalic vein. These samples were kept on ice until processed for plasma. Blood samples were centrifuged at 3200 rpm for 5 minutes at approximately 5° C. within 1 hour of collection. Plasma was directly transferred to a 96-well plate tube (0.125 mL). Plug caps were placed on the tubes and the tubes frozen at approximately −70° C. and stored until analysis. Plasma was collected and analyzed for the presence of a compound.
Quantitation of Compounds. The compound of the invention and the internal standard were extracted from plasma and CSF by precipitation. Samples were analyzed using liquid chromatography (LC) with tandem mass spectrometric detection (MS/MS) using electrospray ionization. The standard curve range was from 1 to 1000 ng/mL. Results of the compounds described herein in this assay are illustrated in Tables 5a and 5b below (1 mg/kg dose).
Kp,uu is defined as the concentration ratio of unbound drug in CSF to unbound drug in plasma. Unbound drug in plasma (or free plasma concentration) is calculated by multiplying the total plasma concentration by the unbound fraction as determined by plasma protein binding. The CSF concentration is then divided by the free plasma concentration to determine the Kp,uu. (See e.g., Di et al., J. Med. Chem 56, 2-12 (2013))

rats [4] = experiment: Acute and tonic pain: acetic acid test, abdominal cramps (Example 13); details: Compound I-1 p.o. 10 mg/kg, 120 minutes after treatment
Experimental: Acetic Acid Test. Abdominal contraction was induced by intraperitoneal injection of 0.6% acetic acid solution in rats (10 mL/kg). The number of writhing (a twisting or contorting of the body due to pain) was recorded from the 5th to the 15th minute after injection.
as §1

Fc1ccccc1Cc1nc(-c2nc(C(F)(F)F)n[nH]2)cn2ccnc12 [Compound I-1, 8-(2-fluorobenzyl)-6-(3-(trifluoromethyl)-1H-1,2,4-triazol-5-yl)imidazo[1,2-a]pyrazine]
% of activity vs. vehicle (rats [1]): 25% | CSF Conc. (nM @ 1 h) (cGMP in rat CSF; 3 mg/kg PO): 7.2* nM | CSF Conc. (nM @ 6 h) (cGMP in rat CSF; 3 mg/kg PO): 6.7 nM | CSF Conc. (nM @ 1 h) (cGMP in rat CSF; 10 mg/kg PO): 14.8** nM | CSF Conc. (nM @ 6 h) (cGMP in rat CSF; 10 mg/kg PO): 13.8* nM | % of activity vs. vehicle (rats [2]): 40% | Kp uu at 1 h ([3]; CSF / unbound plasma, @ 1 h): 0.7 | Kp uu at 2 h ([3]; CSF / unbound plasma, @ 2 h): 0.7 | Kp uu at 4 h ([3]; CSF / unbound plasma, @ 4 h): 0.7 | Kp uu at 8 h ([3]; CSF / unbound plasma, @ 8 h): 0.4 | concentration at 1 h ([3]; CSF, @ 1 h, read-out: CSF Conc.): 34 nM | concentration at 2 h ([3]; CSF, @ 2 h, read-out: CSF Conc.): 34 nM | concentration at 4 h ([3]; CSF, @ 4 h, read-out: CSF Conc.): 19 nM | concentration at 8 h ([3]; CSF, @ 8 h, read-out: CSF Conc.): 2.4 nM | % of activity vs. vehicle (rats [4]): 7%

— US11731977B2, “SGC stimulators” (Cyclerion Therapeutics, Inc., priority 2016, dated 2023)
